Measurements: article PMC5641942 (Physiological Reports, 2017)
“Also recorded” adds a separate entry of the source. Read-outs that look alike come from different tables or passages of the source.

Assays:
[1] = molecular target: T1, TauT (Homo sapiens, UniProt P31641); details: pH 7.4/7.4, 0.052 μmol/L taurine, 20 mg/mL test substance
T1 sequence (P31641 1-620): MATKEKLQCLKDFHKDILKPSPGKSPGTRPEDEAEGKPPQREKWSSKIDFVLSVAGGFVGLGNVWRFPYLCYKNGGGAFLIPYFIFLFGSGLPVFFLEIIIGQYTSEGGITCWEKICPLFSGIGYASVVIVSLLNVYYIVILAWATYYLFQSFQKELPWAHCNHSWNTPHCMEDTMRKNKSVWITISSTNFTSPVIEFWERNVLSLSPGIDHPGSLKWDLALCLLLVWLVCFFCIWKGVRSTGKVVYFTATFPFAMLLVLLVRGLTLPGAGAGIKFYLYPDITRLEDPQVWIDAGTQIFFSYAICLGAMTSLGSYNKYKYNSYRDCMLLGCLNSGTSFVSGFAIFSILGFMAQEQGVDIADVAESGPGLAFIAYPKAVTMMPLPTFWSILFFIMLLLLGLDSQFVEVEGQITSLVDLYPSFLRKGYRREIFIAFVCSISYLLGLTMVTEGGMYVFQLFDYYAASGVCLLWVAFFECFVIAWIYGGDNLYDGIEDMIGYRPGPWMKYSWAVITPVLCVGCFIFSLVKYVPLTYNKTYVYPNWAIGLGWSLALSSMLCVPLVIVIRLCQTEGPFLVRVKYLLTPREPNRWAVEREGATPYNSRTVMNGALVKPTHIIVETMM

[2] = molecular target: T1, TauT; assay: Taurine (52 nmol/L) uptake in Caco-2 cells at pH 7.4 in the presence of amino acids; format: cell-based; set-up: endogenous in cells; host or cells: Caco-2; details: pH 7.4, 0.052 μmol/L taurine
From the text: […]. […] […].

[3] = molecular target: T2, PAT1 (Homo sapiens, UniProt Q7Z2H8); details: pH 6.0, 100 μmol/L taurine
Description: (§5) After the 5 min incubation, the isotope‐containing buffer solution was removed and the wells were washed three times with 500 μL ice‐cold HEPES‐buffer, pH 7.4. The cells were detached using 200 μL of 0.1% Triton X‐100, and transferred to scintillation plastic vials and 2 mL of scintillation cocktail was added.

[4] = molecular target: T3, PAT1 (Rattus norvegicus, UniProt Q924A5); assay: Oral taurine pharmacokinetics with co-administered BCH or Pro and Sar; format: in vivo, male Sprague-Dawley rats; details: oral 30 mg/kg taurine, 200 mg/kg BCH
T3 construct: tissue Charles River Deutschland; host or cells: intestine of living male Sprague-Dawley rats (oral dosing)
Description: (§1) The pH was adjusted with NaOH or HCl to 7.40 ± 0.05.
(§2) The animals were acclimatized for a minimum of 5 days in groups of two and maintained on standard feed with free access to water. Prior to dosing, the animals were fasted for 16–20 h with free access to water.
(§3) Plasma was harvested immediately by 10 min of centrifugation at 4°C, 3600g (Multifuge 1 S‐R, Heraeus, Hanau, Germany) and stored in polypropylene tubes (Pony Vial, PerkinElmer, Waltham, MA, USA) at −20°C until analysed. At the end of the experiment, animals were sacrificed by spinal dislocation using a guillotine. Plasma samples were left to defrost and mixed with 4 mL of liquid scintillation cocktail. The samples were counted for 3 min on a scintillation counter from Tri‐Carb 2900TR.
Based on this V d1, volume of distribution in the central compartment 1; V d2, volume of distribution in the peripheral compartment 2; AUC, area under the curve; and K10, the elimination rate from the central department, were calculated using Phoenix® 6.3 version (Pharsight Corporation, A Certara Company, USA). […] C max and t max were found as mean values of the plasma concentration profiles within each group. […] The total clearance was calculated as dose divided by AUC.

[5] = tested on: PAT1 and TauT; assay: Taurine (52 nmol/L) uptake in Caco-2 cells at pH 6.0 in the presence of amino acids; format: cell-based, human; details: pH 6.0, 0.052 μmol/L taurine
Description: as §5

[6] = molecular target: T2, PAT1; details: donor pH 6.0, 100 μmol/L taurine, 20 mg/mL test substance
[7] = Intravenous taurine pharmacokinetics in rats; format: in vivo, male Sprague-Dawley rats; details: for A / B / α / β: two-compartment model; for clearance / AUC(0-inf): male, Sprague-Dawley, rat, plasma; for clearance: iv
Description: as §1, §2, §3
(§4) Based on this V d1, volume of distribution in the central compartment 1; V d2, volume of distribution in the peripheral compartment 2; AUC, area under the curve; and K10, the elimination rate from the central department, were calculated using Phoenix® 6.3 version (Pharsight Corporation, A Certara Company, USA). […] C max and t max were found as mean values of the plasma concentration profiles within each group. Area under the plasma concentration versus time profiles (AUC), an expression of total exposure, were determined with noncompartmental analysis using the linear trapezoidal rule from time zero to C max and by log linear methods from C max to the last measured plasma concentration and denoted AUC0‐tlast, k e is the first order elimination rate constant calculated as the slope from the terminal log plasma concentration time curve of individual animals. The total clearance was calculated as dose divided by AUC.

[8] = Oral taurine pharmacokinetics in rats; format: in vivo, male Sprague-Dawley rats; details: for AUC: read-out: AUC0‐tlast (converted); for k el: read-out: k e (converted)
Description: as §1, §2, §3, §4

[9] = molecular target: T1, TauT; details: pH 6.0, 52 nmol/L taurine
[10] = Oral taurine pharmacokinetics in rats; format: in vivo; details: male, Sprague-Dawley, rat, plasma, median [Q1, Q3]
[11] = set-up: method as in Yu et al. 2013; details: beagle dogs, noncompartmental analysis; ref Yu et al. 2013; cited from earlier work
[12] = set-up: method as in Sved et al. (2007); details: male Sprague-Dawley rats, ref Sved et al. (2007), cited from earlier work
[13] = molecular target: T1, TauT; assay: Concentration-dependent taurine uptake in Caco-2 cells at pH 7.4; format: in vitro ADME; set-up: endogenous in cells; host or cells: Caco-2; details: for K m of saturable taurine uptake: Caco-2, pH 7.4, 0.052–100 μmol/L taurine, 5 min
Description: Polycarbonate membranes (1.12 cm^2, 0.4 μm pore size) of TranswellTM inserts or 24-well cell culture plates (1.90 cm^2) were used as supports for cell cultivation. […] Experiments were performed 6 days after seeding the Caco-2 cells cultured on 24 wells plates or performed 13-15 days postseeding cells on TranswellTM insert. […] The culture medium was changed every 2-3 days. […] HBSS buffer consisted of in mM: […] KCl, 5.33; […] NaCl, 138; […] Nohr et al. 2014b).

[14] = male, Sprague-Dawley, rat, plasma, oral 10 mg/kg
[15] = male, Sprague-Dawley, rat, plasma, oral 30 mg/kg
[16] = male, Sprague-Dawley, rat, plasma, oral 100 mg/kg
[17] = male, Sprague-Dawley, rat, plasma, oral 299 mg/kg
[18] = male, Sprague-Dawley, rat, plasma, oral 997 mg/kg

T2 sequence (Q7Z2H8 whole entry): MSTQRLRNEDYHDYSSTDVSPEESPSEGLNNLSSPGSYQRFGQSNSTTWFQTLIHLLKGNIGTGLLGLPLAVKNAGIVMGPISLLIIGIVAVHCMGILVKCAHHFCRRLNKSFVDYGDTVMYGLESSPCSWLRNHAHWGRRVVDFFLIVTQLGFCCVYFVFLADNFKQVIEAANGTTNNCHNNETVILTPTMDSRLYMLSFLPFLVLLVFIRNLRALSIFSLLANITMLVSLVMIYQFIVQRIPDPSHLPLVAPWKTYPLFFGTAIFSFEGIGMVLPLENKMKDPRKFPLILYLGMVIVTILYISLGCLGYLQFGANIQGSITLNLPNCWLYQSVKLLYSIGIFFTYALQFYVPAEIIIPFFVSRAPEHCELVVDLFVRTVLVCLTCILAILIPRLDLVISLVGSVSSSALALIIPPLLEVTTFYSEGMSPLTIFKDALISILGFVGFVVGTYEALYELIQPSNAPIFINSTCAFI
T3 sequence (Q924A5 whole entry): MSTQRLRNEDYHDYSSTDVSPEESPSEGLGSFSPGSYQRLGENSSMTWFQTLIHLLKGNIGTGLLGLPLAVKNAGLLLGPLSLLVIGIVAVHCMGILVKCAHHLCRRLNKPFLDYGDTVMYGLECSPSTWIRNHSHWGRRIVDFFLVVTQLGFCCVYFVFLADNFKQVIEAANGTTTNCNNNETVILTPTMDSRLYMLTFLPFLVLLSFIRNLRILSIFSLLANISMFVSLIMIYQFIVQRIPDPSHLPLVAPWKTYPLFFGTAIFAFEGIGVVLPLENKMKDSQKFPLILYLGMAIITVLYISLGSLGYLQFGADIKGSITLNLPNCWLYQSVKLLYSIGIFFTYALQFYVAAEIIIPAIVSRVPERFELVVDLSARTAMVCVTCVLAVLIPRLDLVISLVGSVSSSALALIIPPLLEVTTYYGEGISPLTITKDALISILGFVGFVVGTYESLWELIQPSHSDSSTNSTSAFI

O=C(O)[C@@H]1CCCN1 [Pro, L‐proline]
effect on absorptive (A-B) permeability of taurine [1]: did not significantly decrease
effect on taurine uptake ([2]; 10 mmol/L test substance): not affected

NC1(C(=O)O)CC2CCC1C2 (stereo not drawn) [BCH, 2‐Amino‐2‐norbornanecarboxylic acid]
effect on taurine uptake ([3]; 10 mmol/L test substance): not affected significantly
effect on taurine uptake ([3]; 20 mg/mL test substance): did not affect
effect on absorptive (A-B) permeability of taurine [1]: did not significantly decrease
effect on taurine plasma concentration versus time profile (AUC0‐tlast, t max, C max) [4]: similar; also recorded: did not have any significant effect
effect on taurine uptake ([5]; 10 mmol/L test substance): not affected
effect on taurine uptake ([5]; 20 mg/mL test substance): did not affect
effect on taurine uptake ([2]; 10 mmol/L test substance): not affected
effect on absorptive (A-B) permeability of taurine [6]: did not alter

O=C(O)Cc1c[nH]cn1 [IAA, imidazole‐4‐acetic acid]
effect on taurine uptake ([3]; 10 mmol/L test substance): not affected significantly
effect on taurine uptake ([5]; 10 mmol/L test substance): significantly inhibited
effect on taurine uptake ([2]; 10 mmol/L test substance): significantly inhibited
taurine uptake ([2]; 10 mmol/L test substance): approximately 10 % of the control uptake

NCCS(=O)(=O)O [Taurine, 2‐aminoethane sulfonic acid]
AUC0‐∞/dose ([7]; IV 1 mg/kg): 89 ± 18.9 μg·min/mL pr. mg/kg
K10 ([7]; IV 1 mg/kg): 0.04 ± 0.01 min⁻¹
V d1 ([7]; IV 1 mg/kg): 0.299 ± 0.048 L/kg
V d2 ([7]; IV 1 mg/kg): 4.608 ± 0.974 L/kg
A ([7]; IV 1 mg/kg): 3.5 ± 0.5 µg/mL
B ([7]; IV 1 mg/kg): 0.12 ± 0.03 µg/mL
α ([7]; IV 1 mg/kg): 0.14 ± 0.02 min⁻¹
β ([7]; IV 1 mg/kg): 1.9 ± 0.4 1/min *10^−3
AUC0‐∞/dose ([7]; IV 10 mg/kg): 59 ± 19.0 μg·min/mL pr. mg/kg
K10 ([7]; IV 10 mg/kg): 0.06 ± 0.01 min⁻¹
V d1 ([7]; IV 10 mg/kg): 0.353 ± 0.062 L/kg
V d2 ([7]; IV 10 mg/kg): 4.662 ± 1.153 L/kg
A ([7]; IV 10 mg/kg): 31.0 ± 4.2 µg/mL
B ([7]; IV 10 mg/kg): 0.89 ± 0.14 µg/mL
α ([7]; IV 10 mg/kg): 0.144 ± 0.03 min⁻¹
β ([7]; IV 10 mg/kg): 3.0 ± 0.9 1/min *10^−3
AUC0‐∞/dose ([7]; IV 30 mg/kg): 115 ± 39.2 μg·min/mL pr. mg/kg
K10 ([7]; IV 30 mg/kg): 0.03 ± 0.01 min⁻¹
V d1 ([7]; IV 30 mg/kg): 0.323 ± 0.063 L/kg
V d2 ([7]; IV 30 mg/kg): 8.374 ± 4.466 L/kg
B ([7]; IV 30 mg/kg): 1.87 ± 0.45 µg/mL
α ([7]; IV 30 mg/kg): 0.07 ± 0.01 min⁻¹
β ([7]; IV 30 mg/kg): 1.3 ± 0.6 1/min *10^−3
clearance ([7]; 1 mg/kg, IV 1 mg/kg, read-out: CL): 11.7 ± 1.3 mL/min/kg
clearance ([7]; 10 mg/kg, IV 10 mg/kg, read-out: CL): 18.7 ± 2.54 mL/min/kg
clearance ([7]; 30 mg/kg, IV 30 mg/kg, read-out: CL): 9.4 ± 1.42 mL/min/kg
clearance ([7]; IV 1–30 mg/kg, compartmental analysis, read-out: clearance): 9 to 18 mL/min/kg
AUC(0-inf) ([7]; IV 1 mg/kg): 1.48 µg·h/mL
AUC(0-inf) ([7]; IV 10 mg/kg): 9.78 µg·h/mL
AUC(0-inf) ([7]; IV 30 mg/kg): 57.5 µg·h/mL
Cmax [8, 14]: 2 ± 0.2 µg/mL
AUC [8, 14]: 3.55 µg·h/mL
k el [8, 14]: 6.67e-05 s⁻¹
Cmax [8, 15]: 15.7 ± 2.4 µg/mL
AUC [8, 15]: 18.6 µg·h/mL
k el [8, 15]: 0.000117 s⁻¹
Cmax [8, 16]: 70 ± 6.5 µg/mL
AUC [8, 16]: 89.9 µg·h/mL
k el [8, 16]: 0.000167 s⁻¹
Cmax [8, 17]: 228 ± 16 µg/mL
AUC [8, 17]: 307 µg·h/mL
k el [8, 17]: 0.000167 s⁻¹
Cmax [8, 18]: 643 ± 81 µg/mL
Tmax ([8]; male, Sprague-Dawley, rat, plasma, oral 997 mg/kg, median [Q1, Q3]): 45 min
AUC [8, 18]: 1320 µg·h/mL
k el [8, 18]: 0.00015 s⁻¹
AUC0‐∞/dose ([8]; oral 10 mg/kg): 21 ± 1.3 μg·min/mL pr. mg/kg
AUC0‐∞/dose ([8]; oral 30 mg/kg): 37 ± 4.5 μg·min/mL pr. mg/kg
AUC0‐∞/dose ([8]; oral 100 mg/kg): 54 ± 6.0 μg·min/mL pr. mg/kg
AUC0‐∞/dose ([8]; oral 299 mg/kg): 62 ± 6.7 μg·min/mL pr. mg/kg
AUC0‐∞/dose ([8]; oral 997 mg/kg): 79 ± 6.7 μg·min/mL pr. mg/kg
TauT share of carrier mediated taurine uptake [9]: 78%
Tmax ([10]; oral 100 mg/kg): 30 min
Tmax ([10]; oral 299 mg/kg): 30 min
clearance [11]: 3.33 mL/min/kg
AUC ([12]; oral 30 mg/kg): 236 µg·h/mL
AUC ([12]; oral 300 mg/kg): 1760 µg·h/mL
V max of saturable taurine uptake ([13]; Caco-2, pH 7.4): 4.6 ± 0.8 pmol/(cm^2·min)
nonsaturable component, B ([13]; Caco-2, pH 7.4): 5.7e-08 ± 8e-09 cm/min
K m of saturable taurine uptake [13]: 5.6 µM
K m of saturable taurine uptake ([13]; listed as taurine): 5.6 ± 2.6 µM

CNCC(=O)O [Sar, sarcosine]
effect on absorptive (A-B) permeability of taurine [1]: did not significantly decrease
effect on taurine uptake ([2]; 10 mmol/L test substance): not affected
effect on taurine uptake ([2]; 20 mg/mL test substance): decreased
